Data published in ChEMBL document CHEMBL5331095, “Structure-activity relationship and biological evaluation of xanthine derivatives as PCSK9 inhibitors for the treatment of atherosclerosis” (Eur J Med Chem, 2023).
One block for each compound: values may come before it. Active and inactive are the calls of the source. No cut-off for these calls is given here.

Key:
[1] = target: Proprotein convertase subtilisin/kexin type 9 (Homo sapiens) (UniProt Q8NBP7); test: Inhibition of PCSK9 transcriptional activity in human HepG2 cells stably expressing luciferase reporter plasmid containing PCSK9 promoter assessed as decrease in luciferase activity at 10 ug/ml incubated for 24 hrs by Luciferase assay relative to control; type: cell-based; settings: dose 10.0 µg/ml
Chain of Proprotein convertase subtilisin/kexin type 9 (Homo sapiens) (Q8NBP7 31-152 limits assumed): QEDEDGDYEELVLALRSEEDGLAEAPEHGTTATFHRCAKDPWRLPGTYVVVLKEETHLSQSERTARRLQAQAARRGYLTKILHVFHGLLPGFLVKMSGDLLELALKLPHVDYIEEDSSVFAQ
Chain of Proprotein convertase subtilisin/kexin type 9 (Homo sapiens) (Q8NBP7 153-692 limits assumed): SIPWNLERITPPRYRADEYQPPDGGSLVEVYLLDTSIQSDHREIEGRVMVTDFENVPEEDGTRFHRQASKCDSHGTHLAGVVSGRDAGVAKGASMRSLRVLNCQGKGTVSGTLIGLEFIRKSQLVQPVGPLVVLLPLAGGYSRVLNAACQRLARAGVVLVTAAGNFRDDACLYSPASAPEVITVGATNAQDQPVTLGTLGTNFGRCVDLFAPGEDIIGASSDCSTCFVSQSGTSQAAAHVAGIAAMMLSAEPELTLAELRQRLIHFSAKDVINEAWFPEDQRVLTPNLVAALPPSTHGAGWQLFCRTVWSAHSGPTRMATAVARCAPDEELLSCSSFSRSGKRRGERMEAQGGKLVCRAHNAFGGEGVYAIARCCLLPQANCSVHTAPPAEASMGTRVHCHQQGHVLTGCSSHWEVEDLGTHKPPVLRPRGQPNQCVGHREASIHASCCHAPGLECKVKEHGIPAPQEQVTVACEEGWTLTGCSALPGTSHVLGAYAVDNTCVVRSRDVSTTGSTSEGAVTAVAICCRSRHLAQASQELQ

[2] = tested on: PCSK9 transcriptional activity; test: Therapeutic index, ratio of TC50 for cytotoxicity against human HepG2 cells to IC50 for inhibition of PCSK9 transcriptional activity in human HepG2 cells stably expressing luciferase reporter plasmid containing PCSK9 promoter; type: toxicity, cell-based
[3] = Cytotoxicity against human HepG2 cells assessed as reduction in cell viability by measuring toxic concentration incubated for 24 hrs by MTT assay; type: toxicity, cell-based; settings: read-out: TC50
Mus musculus [4] = test: Antiatherosclerotic activity in high-fat diet fed ApoE knockout C57BL/6 mouse assessed as decrease in serum triglyceride level at 30 mg/kg, IG for 8 weeks by lipid profiling assay; type: functional, organism-based
Mus musculus [5] = test: Antiatherosclerotic activity in high-fat diet fed ApoE knockout C57BL/6 mouse assessed as decrease in high-fat diet induced increase in body weight at 30 mg/kg, IG for 8 weeks; type: functional, organism-based
[6] = Acute toxicity in C57BL/6 mouse assessed as lethality upto 1000 mg/kg, IG and measured every day for 1 week; type: organism-based; settings: in vivo, po, time 1 weeks
Mus musculus [7] = test: Antiatherosclerotic activity in high-fat diet fed ApoE knockout C57BL/6 mouse assessed as decrease in serum total cholesterol level at 30 mg/kg, IG for 8 weeks by lipid profiling assay; type: functional, organism-based
Mus musculus [8] = test: In vivo inhibition of PCSK9 in high-fat diet fed ApoE knockout C57BL/6 mouse assessed as decrease in PCSK9 expression in liver at 30 mg/kg, IG for 8 weeks by Western blot analysis; type: functional, organism-based
[9] = target: Proprotein convertase subtilisin/kexin type 9 (Homo sapiens) (UniProt Q8NBP7); test: Inhibition of PCSK9 in human HepG2 cells assessed as increase in LDL-cholesterol cellular uptake by measuring DiI fluorescence at 2.5 to 25 uM incubated for 24 hrs by Dil-LDL staining based flow cytometry analysis; type: cell-based; settings: dose 2.5-25 µM
[10] = Acute toxicity in C57BL/6 mouse assessed as survival upto 1000 mg/kg, IG and measured every day for 1 week; type: organism-based; settings: in vivo, po, 168 h, time 1 weeks
Mus musculus [11] = test: In vivo inhibition of PCSK9 in high-fat diet fed ApoE knockout C57BL/6 mouse assessed as decrease in PCSK9 expression in serum at 30 mg/kg, IG for 8 weeks by ELISA; type: functional, organism-based
[12] = target: Proprotein convertase subtilisin/kexin type 9 (Homo sapiens) (UniProt Q8NBP7); test: Inhibition of PCSK9 transcriptional activity in human HepG2 cells transfected with luciferase reporter plasmid containing truncated D2 (-1214 to -1 base pairs) human PCSK9 promoter region assessed as decrease in luciferase activity incubated for 24 hrs by Luciferase assay; type: cell-based
[13] = target: Proprotein convertase subtilisin/kexin type 9 (Homo sapiens) (UniProt Q8NBP7); test: Inhibition of PCSK9 in human HepG2 cells assessed as fold increase in LDL-cholesterol cellular uptake by measuring DiI fluorescence at 25 uM incubated for 24 hrs by Dil-LDL staining based flow cytometry analysis relative to control; type: cell-based
[14] = target: Proprotein convertase subtilisin/kexin type 9 (Homo sapiens) (UniProt Q8NBP7); test: Inhibition of PCSK9 in human HepG2 cells assessed as increase in LDLR protein expression level at 2.5 to 25 uM incubated for 24 hrs by Western blot analysis; type: cell-based; settings: dose 2.5-25 µM
Mus musculus [15] = test: Antiatherosclerotic activity in high-fat diet fed ApoE knockout C57BL/6 mouse assessed as decrease in VLDL fraction cholesterol level at 30 mg/kg, IG for 8 weeks by FPLC analysis; type: functional, organism-based
[16] = target: Proprotein convertase subtilisin/kexin type 9 (Homo sapiens) (UniProt Q8NBP7); test: Inhibition of PCSK9 transcriptional activity in human HepG2 cells transfected with luciferase reporter plasmid containing truncated D6 (-351 to -1 base pairs) human PCSK9 promoter region assessed as decrease in luciferase activity incubated for 24 hrs by Luciferase assay; type: cell-based
[17] = Acute toxicity in C57BL/6 mouse assessed as behavioral change upto 1000 mg/kg, IG and measured every day for 1 week; type: organism-based; settings: in vivo, po, 168 h, time 1 weeks
[18] = target: Proprotein convertase subtilisin/kexin type 9 (Homo sapiens) (UniProt Q8NBP7); test: Inhibition of PCSK9 in human HepG2 cells assessed as decrease in PCSK9 protein expression level at 2.5 to 25 uM incubated for 24 hrs by Western blot analysis; type: cell-based; settings: dose 2.5-25 µM
[19] = target: Proprotein convertase subtilisin/kexin type 9 (Homo sapiens) (UniProt Q8NBP7); test: Inhibition of PCSK9 transcriptional activity in human HepG2 cells transfected with luciferase reporter plasmid containing truncated D1 (-1711 to -1 base pairs) human PCSK9 promoter region assessed as decrease in luciferase activity incubated for 24 hrs by Luciferase assay; type: cell-based
Mus musculus [20] = test: Antiatherosclerotic activity in high-fat diet fed ApoE knockout C57BL/6 mouse assessed as reduction in atherosclerotic plaque size in aortae en face root at 30 mg/kg, IG for 8 weeks by Oil Red O staining based imaging analysis; type: functional, organism-based
[21] = target: Proprotein convertase subtilisin/kexin type 9 (Homo sapiens) (UniProt Q8NBP7); test: Inhibition of PCSK9 transcriptional activity in human HepG2 cells transfected with luciferase reporter plasmid containing truncated D5 (-392 to -1 base pairs) human PCSK9 promoter region assessed as decrease in luciferase activity incubated for 24 hrs by Luciferase assay; type: cell-based
[22] = target: Proprotein convertase subtilisin/kexin type 9 (Homo sapiens) (UniProt Q8NBP7); test: Inhibition of PCSK9 transcriptional activity in human HepG2 cells transfected with luciferase reporter plasmid containing truncated D3 (-709 to -1 base pairs) human PCSK9 promoter region assessed as decrease in luciferase activity incubated for 24 hrs by Luciferase assay; type: cell-based
[23] = target: Proprotein convertase subtilisin/kexin type 9 (Homo sapiens) (UniProt Q8NBP7); test: Inhibition of PCSK9 transcriptional activity in human HepG2 cells transfected with luciferase reporter plasmid containing truncated D7 (-335 to -1 base pairs) human PCSK9 promoter region assessed as decrease in luciferase activity incubated for 24 hrs by Luciferase assay; type: cell-based
Mus musculus [24] = test: Antiatherosclerotic activity in high-fat diet fed ApoE knockout C57BL/6 mouse assessed as reduction in atherosclerotic plaque size in aortic root at 30 mg/kg, IG for 8 weeks by Oil Red O staining based imaging analysis; type: functional, organism-based
Mus musculus [25] = test: Antiatherosclerotic activity in high-fat diet fed ApoE knockout C57BL/6 mouse assessed as decrease in LDL cholesterol level at 30 mg/kg, IG for 8 weeks by FPLC analysis; type: functional, organism-based
[26] = target: Proprotein convertase subtilisin/kexin type 9 (Homo sapiens) (UniProt Q8NBP7); test: Inhibition of PCSK9 transcriptional activity in human HepG2 cells transfected with luciferase reporter plasmid containing truncated D4 (-440 to -1 base pairs) human PCSK9 promoter region assessed as decrease in luciferase activity incubated for 24 hrs by Luciferase assay; type: cell-based
[27] = Acute toxicity in C57BL/6 mouse assessed as body weight change upto 1000 mg/kg, IG and measured every day for 1 week; type: organism-based; settings: in vivo, po, 168 h, time 1 weeks

SMILES: COc1cccc(Cn2c(N3CCSCC3)nc3c2c(=O)n(C)c(=O)n3C)c1
- inhibition [1]: 17%

SMILES: COc1cccc(Cn2c(NCCO)nc3c2c(=O)n(C)c(=O)n3C)c1
- selectivity ratio [2]: 16.8
- CC50 at 24 h [3]: 45.5 µM
- Activity (Mus musculus [4]): inactive
- Activity (Mus musculus [5]): Active
- inhibition [1]: 89.8%
- LD50 at 168 h [6]: 300 mg/kg
- Activity (Mus musculus [7]): inactive

SMILES: COc1cccc(Cn2c(NC(CO)CO)nc3c2c(=O)n(C)c(=O)n3C)c1
- inhibition [1]: 37%

SMILES: COc1cccc(Cn2c(NC[C@@H](C)O)nc3c2c(=O)n(C)c(=O)n3C)c1
- selectivity ratio [2]: 22.9
- CC50 at 24 h [3]: 89.2 µM
- inhibition [1]: 81.7%

SMILES: COCCNc1nc2c(c(=O)n(C)c(=O)n2C)n1Cc1cccc(OC)c1
- selectivity ratio [2]: > 31.3
- CC50 at 24 h [3]: > 200 µM
- Activity (Mus musculus [4]): Active
- inhibition (Mus musculus [8]): Active
- inhibition [9]: Dose-Dependent Effect
- Activity (Mus musculus [5]): Active
- Activity [10]: Non-Toxic
- inhibition (Mus musculus [11]): Active
- inhibition [12]: Active
- fold change (FC) [13]: 1.7
- inhibition [1]: 85.7%
- inhibition [14]: Dose-Dependent Effect
- Activity (Mus musculus [15]): Active
- LD50 at 168 h [6]: > 1000 mg/kg
- inhibition [16]: inactive
- Activity [17]: Non-Toxic
- inhibition [18]: Dose-Dependent Effect
- Activity (Mus musculus [7]): Active
- inhibition [19]: Active
- Activity (Mus musculus [20]): Active
- inhibition [21]: Active
- inhibition [22]: Active
- inhibition [23]: inactive
- Activity (Mus musculus [24]): Active
- Activity (Mus musculus [25]): Active
- inhibition [26]: Active
- Activity [27]: Non-Toxic

SMILES: Cn1c(=O)c2c(nc(NCCO)n2Cc2cccc(OC(F)(F)F)c2)n(C)c1=O
- inhibition [1]: 84.7%

SMILES: COC(=O)CNc1nc2c(c(=O)n(C)c(=O)n2C)n1Cc1cccc(OC)c1
- inhibition [1]: 68.4%

SMILES: Cn1c(=O)c2c(nc(NCCO)n2Cc2ccc(F)cc2F)n(C)c1=O
- inhibition [1]: 76.1%

SMILES: Cn1c(=O)c2c(nc(NCCO)n2Cc2ccccc2[N+](=O)[O-])n(C)c1=O
- inhibition [1]: 20.2%

SMILES: COc1cccc(Cn2c(N3CCC(CCN(C)C)CC3)nc3c2c(=O)n(C)c(=O)n3C)c1
- inhibition [1]: 17.4%

SMILES: COc1cccc(Cn2c(NCCCCO)nc3c2c(=O)n(C)c(=O)n3C)c1
- inhibition [1]: 41.4%

SMILES: COc1cccc(Cn2c(Nc3cccc(O)c3)nc3c2c(=O)n(C)c(=O)n3C)c1
- inhibition [1]: -9.3%

SMILES: COc1cccc(Cn2c(NCCC3CCN(C)C3)nc3c2c(=O)n(C)c(=O)n3C)c1 (centres undefined)
- inhibition [1]: 16.7%

SMILES: COc1cccc(Cn2c(NC[C@H](C)O)nc3c2c(=O)n(C)c(=O)n3C)c1
- inhibition [1]: 68.9%

More lines, main results first:

- inhibition [1]: 92.6%
SMILES: Cn1c(=O)c2c(nc(NCCO)n2Cc2cccc(F)c2)n(C)c1=O

- inhibition [1]: 93.1%
SMILES: Cn1c(=O)c2c(nc(NCCO)n2Cc2ccc(F)cc2)n(C)c1=O

- inhibition [1]: 76.5%
SMILES: COc1ccc(Cn2c(NCCO)nc3c2c(=O)n(C)c(=O)n3C)cc1

- inhibition [1]: 12.1%
SMILES: CCCn1c(NCCO)nc2c1c(=O)n(C)c(=O)n2C

- inhibition [1]: 80.4%
SMILES: Cn1c(=O)c2c(nc(NCCO)n2Cc2ccccc2)n(C)c1=O
- selectivity ratio [2]: 23.1
- CC50 at 24 h [3]: 85.5 µM

- inhibition [1]: 53.3%
SMILES: Cn1c(=O)c2c(nc(NCCO)n2Cc2ccccc2Br)n(C)c1=O

- inhibition [1]: 88.1%
SMILES: Cc1ccccc1Cn1c(NCCO)nc2c1c(=O)n(C)c(=O)n2C

- inhibition [1]: 91%
SMILES: Cn1c(=O)c2c(nc(NCCO)n2Cc2c(F)cccc2F)n(C)c1=O

- inhibition [1]: 79.9%
SMILES: Cn1c(=O)c2c(nc(NCCO)n2Cc2cc(F)ccc2F)n(C)c1=O
